Data from PubChem BioAssay AID434974 (The Scripps Research Institute Molecular Screening Center, 2010).
Active and inactive are the calls of the source. No rule for the calls is given here.

Assays:
Experiment in all cases: off-target binding across PDSP receptor panel, profiling panel, selectivity assay for NOX1 inhibitor project, biochemical, radioligand binding (AID 434974)
[1] = molecular target: 5-hydroxytryptamine receptor 2B (Homo sapiens) (UniProt P41595); conditions: receptor displacement, Serotonin receptor 5ht2b, at 10 µM, active compounds read high
5-hydroxytryptamine receptor 2B (Homo sapiens), sequence (P41595 whole entry, looked up): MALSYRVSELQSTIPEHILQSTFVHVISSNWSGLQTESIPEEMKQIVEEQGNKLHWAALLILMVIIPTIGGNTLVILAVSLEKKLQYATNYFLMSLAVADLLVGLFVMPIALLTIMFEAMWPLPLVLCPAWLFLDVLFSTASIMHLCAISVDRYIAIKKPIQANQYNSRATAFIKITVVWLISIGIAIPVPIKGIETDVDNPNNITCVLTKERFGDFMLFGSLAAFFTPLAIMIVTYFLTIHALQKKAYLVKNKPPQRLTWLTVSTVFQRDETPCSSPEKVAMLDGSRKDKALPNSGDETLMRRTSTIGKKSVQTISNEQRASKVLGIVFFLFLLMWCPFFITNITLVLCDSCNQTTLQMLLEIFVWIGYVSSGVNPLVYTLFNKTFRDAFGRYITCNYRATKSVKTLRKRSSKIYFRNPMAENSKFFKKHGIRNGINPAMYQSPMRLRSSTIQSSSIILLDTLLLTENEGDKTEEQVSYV

[2] = tested on: Adrenergic receptor Alpha1A; conditions: receptor displacement, at 10 µM, active compounds read high
[3] = tested on: Adrenergic receptor Alpha1B; conditions: receptor displacement, at 10 µM, active compounds read high
[4] = tested on: Adrenergic receptor Alpha1D; conditions: receptor displacement, at 10 µM, active compounds read high
[5] = tested on: Adrenergic receptor Beta1; conditions: receptor displacement, at 10 µM, active compounds read high
[6] = tested on: Adrenergic receptor Beta3; conditions: receptor displacement, at 10 µM, active compounds read high
[7] = molecular target: Alpha-2A adrenergic receptor (Homo sapiens) (UniProt P08913); conditions: receptor displacement, Adrenergic receptor Alpha2A, at 10 µM, active compounds read high
Alpha-2A adrenergic receptor (Homo sapiens), sequence (P08913 whole entry, looked up): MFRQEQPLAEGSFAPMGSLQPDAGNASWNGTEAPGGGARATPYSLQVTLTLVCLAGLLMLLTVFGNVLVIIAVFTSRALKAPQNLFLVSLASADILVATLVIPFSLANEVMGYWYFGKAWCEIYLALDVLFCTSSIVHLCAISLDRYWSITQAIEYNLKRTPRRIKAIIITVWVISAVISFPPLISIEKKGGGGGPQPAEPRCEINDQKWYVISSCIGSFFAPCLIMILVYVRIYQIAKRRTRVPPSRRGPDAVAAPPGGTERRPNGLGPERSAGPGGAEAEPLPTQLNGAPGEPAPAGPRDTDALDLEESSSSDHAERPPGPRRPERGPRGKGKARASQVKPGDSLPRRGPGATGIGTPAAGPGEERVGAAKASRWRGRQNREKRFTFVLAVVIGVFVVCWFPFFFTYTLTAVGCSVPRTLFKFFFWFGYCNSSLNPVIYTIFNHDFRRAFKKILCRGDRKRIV

[8] = molecular target: Alpha-2B adrenergic receptor (Homo sapiens) (UniProt P18089); conditions: receptor displacement, Adrenergic receptor Alpha2B, at 10 µM, active compounds read high
[9] = molecular target: Alpha-2C adrenergic receptor (Homo sapiens) (UniProt P18825); conditions: receptor displacement, Adrenergic receptor Alpha2C, at 10 µM, active compounds read high
Alpha-2C adrenergic receptor (Homo sapiens), sequence (P18825 whole entry, looked up): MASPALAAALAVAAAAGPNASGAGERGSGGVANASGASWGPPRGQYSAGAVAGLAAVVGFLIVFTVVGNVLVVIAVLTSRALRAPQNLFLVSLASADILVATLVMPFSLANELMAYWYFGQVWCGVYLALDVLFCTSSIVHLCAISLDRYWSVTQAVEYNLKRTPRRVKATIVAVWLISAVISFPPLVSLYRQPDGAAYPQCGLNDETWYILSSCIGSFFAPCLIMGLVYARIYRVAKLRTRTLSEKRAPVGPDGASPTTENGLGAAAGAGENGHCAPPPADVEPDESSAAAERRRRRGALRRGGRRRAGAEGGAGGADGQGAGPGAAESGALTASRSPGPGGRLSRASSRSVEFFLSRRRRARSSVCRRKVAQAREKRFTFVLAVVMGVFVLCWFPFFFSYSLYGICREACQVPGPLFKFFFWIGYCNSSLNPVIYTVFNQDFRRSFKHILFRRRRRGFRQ

BZP Rat Brain Site = conditions: receptor displacement, at 10 µM, active compounds read high
[10] = molecular target: Beta-2 adrenergic receptor (Homo sapiens) (UniProt P07550); conditions: receptor displacement, Adrenergic receptor Beta2, at 10 µM, active compounds read high
Beta-2 adrenergic receptor (Homo sapiens), sequence (P07550 whole entry, looked up): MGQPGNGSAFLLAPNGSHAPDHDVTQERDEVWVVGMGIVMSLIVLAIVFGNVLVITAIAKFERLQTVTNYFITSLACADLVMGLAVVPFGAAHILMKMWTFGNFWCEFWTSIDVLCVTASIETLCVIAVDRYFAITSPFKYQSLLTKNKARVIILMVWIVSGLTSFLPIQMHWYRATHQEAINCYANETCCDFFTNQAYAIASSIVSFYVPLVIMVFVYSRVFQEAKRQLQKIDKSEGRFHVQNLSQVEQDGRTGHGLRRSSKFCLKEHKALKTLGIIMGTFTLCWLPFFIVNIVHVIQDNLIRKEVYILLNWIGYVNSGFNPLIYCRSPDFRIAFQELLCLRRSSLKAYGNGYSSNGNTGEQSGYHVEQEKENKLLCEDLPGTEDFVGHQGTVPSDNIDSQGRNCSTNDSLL

[11] = tested on: Biogenic amine transporter DAT; conditions: receptor displacement, at 10 µM, active compounds read high
[12] = tested on: Biogenic amine transporter NET; conditions: receptor displacement, at 10 µM, active compounds read high
[13] = tested on: Biogenic amine transporter SERT; conditions: receptor displacement, at 10 µM, active compounds read high
Ca+ Channel = conditions: receptor displacement, at 10 µM, active compounds read high
[14] = molecular target: Cannabinoid receptor 2 (Homo sapiens) (UniProt P34972); conditions: receptor displacement, Cannabinoid receptor CB2, at 10 µM, active compounds read high
Cannabinoid receptor 2 (Homo sapiens), sequence (P34972 whole entry, looked up): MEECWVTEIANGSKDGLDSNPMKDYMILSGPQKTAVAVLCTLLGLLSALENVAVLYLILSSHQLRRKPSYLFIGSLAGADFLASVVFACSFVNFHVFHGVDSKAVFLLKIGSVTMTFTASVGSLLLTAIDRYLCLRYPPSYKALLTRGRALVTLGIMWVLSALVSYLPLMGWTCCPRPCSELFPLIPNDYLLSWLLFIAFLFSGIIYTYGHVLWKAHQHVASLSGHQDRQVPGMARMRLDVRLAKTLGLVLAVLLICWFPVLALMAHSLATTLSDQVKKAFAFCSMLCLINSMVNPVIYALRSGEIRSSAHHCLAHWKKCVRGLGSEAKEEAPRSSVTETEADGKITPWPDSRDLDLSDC

Cannabinoid receptor CB1 = conditions: receptor displacement, at 10 µM, active compounds read high
[15] = molecular target: D(1A) dopamine receptor (Homo sapiens) (UniProt P21728); conditions: receptor displacement, Dopamine receptor D1, at 10 µM, active compounds read high
D(1A) dopamine receptor (Homo sapiens), sequence (P21728 whole entry, looked up): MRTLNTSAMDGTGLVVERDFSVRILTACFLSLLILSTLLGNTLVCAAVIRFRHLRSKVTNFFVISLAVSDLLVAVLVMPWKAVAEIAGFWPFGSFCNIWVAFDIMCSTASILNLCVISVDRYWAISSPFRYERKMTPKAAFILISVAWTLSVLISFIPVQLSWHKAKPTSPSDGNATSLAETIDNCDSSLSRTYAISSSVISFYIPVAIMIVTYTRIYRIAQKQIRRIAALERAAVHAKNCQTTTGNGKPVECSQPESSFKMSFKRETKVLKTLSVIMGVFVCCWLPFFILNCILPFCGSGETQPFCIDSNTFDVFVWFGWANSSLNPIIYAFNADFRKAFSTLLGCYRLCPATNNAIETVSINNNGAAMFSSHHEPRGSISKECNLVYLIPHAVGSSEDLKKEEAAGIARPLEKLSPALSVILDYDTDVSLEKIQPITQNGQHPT

[16] = molecular target: D(1B) dopamine receptor (Homo sapiens) (UniProt P21918); conditions: receptor displacement, Dopamine receptor D5, at 10 µM, active compounds read high
D(1B) dopamine receptor (Homo sapiens), sequence (P21918 whole entry, looked up): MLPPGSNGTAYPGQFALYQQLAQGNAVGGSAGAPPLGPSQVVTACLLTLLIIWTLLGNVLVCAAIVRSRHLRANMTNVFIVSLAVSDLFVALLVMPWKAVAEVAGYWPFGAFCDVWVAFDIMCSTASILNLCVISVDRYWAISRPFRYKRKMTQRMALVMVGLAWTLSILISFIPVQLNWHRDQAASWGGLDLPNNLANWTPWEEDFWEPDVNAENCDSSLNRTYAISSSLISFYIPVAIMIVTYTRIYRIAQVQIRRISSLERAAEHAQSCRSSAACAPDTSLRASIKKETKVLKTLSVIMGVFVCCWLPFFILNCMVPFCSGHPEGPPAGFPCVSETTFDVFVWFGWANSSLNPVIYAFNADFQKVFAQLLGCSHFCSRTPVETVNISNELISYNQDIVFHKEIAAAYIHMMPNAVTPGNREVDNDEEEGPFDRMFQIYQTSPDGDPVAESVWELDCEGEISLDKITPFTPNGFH

[17] = molecular target: D(3) dopamine receptor (Homo sapiens) (UniProt P35462); conditions: receptor displacement, Dopamine receptor D3, at 10 µM, active compounds read high
[18] = molecular target: Delta-type opioid receptor (Homo sapiens) (UniProt P41143); conditions: receptor displacement, Opioid receptor DOR, at 10 µM, active compounds read high
Delta-type opioid receptor (Homo sapiens), sequence (P41143 whole entry, looked up): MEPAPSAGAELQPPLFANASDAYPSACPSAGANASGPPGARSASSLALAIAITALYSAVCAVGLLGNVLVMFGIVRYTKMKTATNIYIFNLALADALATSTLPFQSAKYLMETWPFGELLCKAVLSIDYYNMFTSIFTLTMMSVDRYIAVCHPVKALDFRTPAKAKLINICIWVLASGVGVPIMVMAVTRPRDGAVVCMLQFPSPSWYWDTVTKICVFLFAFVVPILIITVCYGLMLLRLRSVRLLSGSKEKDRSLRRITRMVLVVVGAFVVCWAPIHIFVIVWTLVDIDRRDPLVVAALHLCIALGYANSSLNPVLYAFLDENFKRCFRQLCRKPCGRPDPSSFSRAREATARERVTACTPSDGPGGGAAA

Dopamine receptor D2 = conditions: receptor displacement, at 10 µM, active compounds read high
Dopamine receptor D4 = conditions: receptor displacement, at 10 µM, active compounds read high
GABA receptor GABAa a1 = conditions: receptor displacement, at 10 µM, active compounds read high
GABA receptor GABAa = conditions: receptor displacement, at 10 µM, active compounds read high
GABA receptor PBR = conditions: receptor displacement, at 10 µM, active compounds read high
[19] = tested on: Glutamate receptor NMDA PCP site; conditions: receptor displacement, at 10 µM, active compounds read high
Histamine receptor H1 = conditions: receptor displacement, at 10 µM, active compounds read high
Histamine receptor H2 = conditions: receptor displacement, at 10 µM, active compounds read high
Histamine receptor H3 = conditions: receptor displacement, at 10 µM, active compounds read high
Histamine receptor H4 = conditions: receptor displacement, at 10 µM, active compounds read high
[20] = molecular target: Kappa-type opioid receptor (Homo sapiens) (UniProt P41145); conditions: receptor displacement, Opioid receptor KOR, at 10 µM, active compounds read high
Kappa-type opioid receptor (Homo sapiens), sequence (P41145 whole entry, looked up): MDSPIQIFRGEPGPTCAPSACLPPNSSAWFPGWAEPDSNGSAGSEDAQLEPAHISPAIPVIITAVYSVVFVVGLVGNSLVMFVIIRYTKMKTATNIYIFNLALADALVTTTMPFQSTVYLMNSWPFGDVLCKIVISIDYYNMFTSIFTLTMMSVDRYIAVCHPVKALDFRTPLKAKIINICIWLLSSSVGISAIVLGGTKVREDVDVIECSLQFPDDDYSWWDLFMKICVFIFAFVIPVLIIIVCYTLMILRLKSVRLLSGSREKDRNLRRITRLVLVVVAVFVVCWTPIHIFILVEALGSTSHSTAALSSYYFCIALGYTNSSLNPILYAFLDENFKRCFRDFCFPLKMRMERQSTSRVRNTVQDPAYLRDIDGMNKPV

[21] = molecular target: Muscarinic acetylcholine receptor M1 (Homo sapiens) (UniProt P11229); conditions: receptor displacement, at 10 µM, active compounds read high
Muscarinic acetylcholine receptor M1 (Homo sapiens), sequence (P11229 whole entry, looked up): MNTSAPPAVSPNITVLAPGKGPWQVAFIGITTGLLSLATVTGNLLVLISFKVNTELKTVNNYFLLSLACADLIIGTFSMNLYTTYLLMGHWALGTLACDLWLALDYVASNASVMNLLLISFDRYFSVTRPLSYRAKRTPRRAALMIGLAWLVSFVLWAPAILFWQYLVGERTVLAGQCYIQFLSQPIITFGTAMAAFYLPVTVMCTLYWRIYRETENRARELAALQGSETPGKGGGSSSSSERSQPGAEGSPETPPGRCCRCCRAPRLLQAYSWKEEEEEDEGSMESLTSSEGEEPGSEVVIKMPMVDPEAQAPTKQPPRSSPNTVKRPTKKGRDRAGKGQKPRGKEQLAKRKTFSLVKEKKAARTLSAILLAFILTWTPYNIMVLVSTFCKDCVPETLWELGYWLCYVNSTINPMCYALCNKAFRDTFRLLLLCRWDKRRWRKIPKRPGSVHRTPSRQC

[22] = molecular target: Muscarinic acetylcholine receptor M2 (Homo sapiens) (UniProt P08172); conditions: receptor displacement, at 10 µM, active compounds read high
[23] = molecular target: Muscarinic acetylcholine receptor M3 (Homo sapiens) (UniProt P20309); conditions: receptor displacement, at 10 µM, active compounds read high
Muscarinic acetylcholine receptor M3 (Homo sapiens), sequence (P20309 whole entry, looked up): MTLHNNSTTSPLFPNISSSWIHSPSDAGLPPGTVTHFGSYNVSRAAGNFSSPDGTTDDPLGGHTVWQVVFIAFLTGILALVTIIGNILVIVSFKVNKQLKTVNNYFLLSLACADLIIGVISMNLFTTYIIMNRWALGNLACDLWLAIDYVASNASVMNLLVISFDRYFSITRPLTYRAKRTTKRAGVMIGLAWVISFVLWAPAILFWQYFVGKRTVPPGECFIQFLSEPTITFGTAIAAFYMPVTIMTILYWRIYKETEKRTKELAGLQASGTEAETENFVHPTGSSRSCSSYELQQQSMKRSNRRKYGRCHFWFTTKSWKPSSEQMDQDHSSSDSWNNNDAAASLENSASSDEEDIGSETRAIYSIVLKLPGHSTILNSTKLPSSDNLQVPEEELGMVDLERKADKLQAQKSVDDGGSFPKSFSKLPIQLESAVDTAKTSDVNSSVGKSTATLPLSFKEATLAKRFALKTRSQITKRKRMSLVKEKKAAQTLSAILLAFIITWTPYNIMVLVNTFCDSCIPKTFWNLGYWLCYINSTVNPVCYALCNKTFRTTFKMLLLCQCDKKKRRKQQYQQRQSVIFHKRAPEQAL

Muscarinic receptor M4 = conditions: receptor displacement, at 10 µM, active compounds read high
Muscarinic receptor M5 = conditions: receptor displacement, at 10 µM, active compounds read high
Nicotinic receptor A2B2 = conditions: receptor displacement, at 10 µM, active compounds read high
Nicotinic receptor A2B4 = conditions: receptor displacement, at 10 µM, active compounds read high
Nicotinic receptor A3B2 = conditions: receptor displacement, at 10 µM, active compounds read high
Nicotinic receptor A3B4 = conditions: receptor displacement, at 10 µM, active compounds read high
Nicotinic receptor A4B2 = conditions: receptor displacement, at 10 µM, active compounds read high
Nicotinic receptor A4B4 = conditions: receptor displacement, at 10 µM, active compounds read high
Opioid receptor MOR = conditions: receptor displacement, at 10 µM, active compounds read high
[24] = molecular target: Oxytocin receptor (Homo sapiens) (UniProt P30559); conditions: receptor displacement, at 10 µM, active compounds read high
[25] = tested on: Prostaglandin receptor EP3; conditions: receptor displacement, at 10 µM, active compounds read high
[26] = tested on: Prostaglandin receptor EP4; conditions: receptor displacement, at 10 µM, active compounds read high
Serotonin receptor 5ht1a = conditions: receptor displacement, at 10 µM, active compounds read high
Serotonin receptor 5ht1b = conditions: receptor displacement, at 10 µM, active compounds read high
Serotonin receptor 5ht1d = conditions: receptor displacement, at 10 µM, active compounds read high
Serotonin receptor 5ht1e = conditions: receptor displacement, at 10 µM, active compounds read high
Serotonin receptor 5ht2a = conditions: receptor displacement, at 10 µM, active compounds read high
Serotonin receptor 5ht2c = conditions: receptor displacement, at 10 µM, active compounds read high
Serotonin receptor 5ht3 = conditions: receptor displacement, at 10 µM, active compounds read high
Serotonin receptor 5ht5a = conditions: receptor displacement, at 10 µM, active compounds read high
Serotonin receptor 5ht6 = conditions: receptor displacement, at 10 µM, active compounds read high
Serotonin receptor 5ht7 = conditions: receptor displacement, at 10 µM, active compounds read high
Sigma receptor 1 = conditions: receptor displacement, at 10 µM, active compounds read high
Sigma receptor 2 = conditions: receptor displacement, at 10 µM, active compounds read high
Vasopressin receptor V1A = conditions: receptor displacement, at 10 µM, active compounds read high
Vasopressin receptor V1B = conditions: receptor displacement, at 10 µM, active compounds read high
Vasopressin receptor V2 = conditions: receptor displacement, at 10 µM, active compounds read high

In the case of CN1c2ccccc2Sc2cc(N)ccc21, the inhibition [1] was 84.3%, the inhibition [2] was 36.3% (inactive) and the inhibition [3] was 38.4% (inactive). For the same compound, the inhibition [4] was 23.8% (inactive), the inhibition [5] was 23.5% (inactive) and the inhibition [6] was 3.5% (inactive). It also gave an inhibition [7] of 50.7%, an inhibition [8] of 58.8% and an inhibition [9] of 98.2%. The inhibition (BZP Rat Brain Site) was 44.8% (inactive), the inhibition [10] was -0.9% (inactive) and the inhibition [11] was 16% (inactive). For the same compound, the inhibition [12] was 60.5%, the inhibition [13] was 16.4% (inactive) and the inhibition (Ca+ Channel) was -19.4% (inactive). The inhibition [14] was 3.8% (inactive), the inhibition (Cannabinoid receptor CB1) was 5% (inactive) and the inhibition [15] was 23.6% (inactive). For the same compound, the inhibition [16] was 16.8% (inactive), the inhibition [17] was 59.2% and the inhibition [18] was -0.5% (inactive). The inhibition (Dopamine receptor D2) was 22.6% (inactive), the inhibition (Dopamine receptor D4) was 34.7% (inactive) and the inhibition (GABA receptor GABAa a1) was 16.2% (inactive). For the same compound, the inhibition (GABA receptor GABAa) was 25% (inactive), the inhibition (GABA receptor PBR) was 32.1% (inactive) and the inhibition [19] was 25% (inactive). The inhibition (Histamine receptor H1) was 46.4% (inactive), the inhibition (Histamine receptor H2) was 43% (inactive) and the inhibition (Histamine receptor H3) was -2.4% (inactive). The inhibition (Histamine receptor H4) was 10.1% (inactive), the inhibition [20] was 16.3% (inactive) and the inhibition [21] was 1.1% (inactive). The inhibition [22] was 22.4% (inactive), the inhibition [23] was -5.8% (inactive) and the inhibition (Muscarinic receptor M4) was 19.3% (inactive). For the same compound, the inhibition (Muscarinic receptor M5) was 2.3% (inactive), the inhibition (Nicotinic receptor A2B2) was -4% (inactive) and the inhibition (Nicotinic receptor A2B4) was 4% (inactive). For the same compound, the inhibition (Nicotinic receptor A3B2) was 4% (inactive), the inhibition (Nicotinic receptor A3B4) was 0% (inactive) and the inhibition (Nicotinic receptor A4B2) was 1% (inactive). For the same compound, the inhibition (Nicotinic receptor A4B4) was 7% (inactive), the inhibition (Opioid receptor MOR) was -18% (inactive) and the inhibition [24] was 38.3% (inactive). The inhibition [25] was 0% (inactive), the inhibition [26] was 45.5% (inactive) and the inhibition (Serotonin receptor 5ht1a) was 34.4% (inactive). The inhibition (Serotonin receptor 5ht1b) was 11.3% (inactive), the inhibition (Serotonin receptor 5ht1d) was 16.1% (inactive) and the inhibition (Serotonin receptor 5ht1e) was 13.1% (inactive). For the same compound, the inhibition (Serotonin receptor 5ht2a) was 33.2% (inactive), the inhibition (Serotonin receptor 5ht2c) was 62.4% and the inhibition (Serotonin receptor 5ht3) was 1.4% (inactive). For the same compound, the inhibition (Serotonin receptor 5ht5a) was 45.6% (inactive), the inhibition (Serotonin receptor 5ht6) was 30.8% (inactive) and the inhibition (Serotonin receptor 5ht7) was -5.7% (inactive). For the same compound, the inhibition (Sigma receptor 1) was 50.1%, the inhibition (Sigma receptor 2) was 9% (inactive) and the inhibition (Vasopressin receptor V1A) was 4% (inactive). The inhibition (Vasopressin receptor V1B) was 8.9% (inactive) and the inhibition (Vasopressin receptor V2) was -5.5% (inactive).
